Data as given in patent US12012628B2, “Method to elevate the amount of steviol glycosides remained in the recrystallization mother liquor of Stevia extract” (Jiangnan University, priority 2018, dated 2024).
Where two headings read alike, the source gives them in different places.

Key:
[1] = n-butyl alcohol/water partition coefficients of steviol glycosides; assay type: physicochemical
Excerpt: The n-butyl alcohol/water partition coefficients of several major steviol glycosides in the mother liquor glycosides are shown in Table 1. It can be seen in Table 1 that the polarity difference between rebaudioside A and rebaudioside C and rubusoside is far larger than the polarity difference between rebaudioside A and rebaudioside C and stevioside; and thus, after stevioside is converted into rubusoside, rebaudioside A and rebaudioside C can be separated out of a mixture more easily than before.

[2] = system: lactase from Kluyveromyces fragilis (ATCC 8554); assay: Lactase-catalysed hydrolysis of steviol glycosides, HPLC analysis of the reaction mixture; assay type: biochemical
Protocol: A standard curve is drawn with rebaudioside A (HPLC 99%) as a standard sample, concentrations of rebaudioside A, stevioside and rubusoside are figured out through the standard curve of rebaudioside A by means of an analysis and detection method of steviol glycosides in JECFA2016.
A conversion rate calculation formula of stevioside: α=[(C0−Ct)/C0]×100% (1)
250 g/L glycoside liquid is prepared with deionized water from Stevia sugar (containing 22% of rebaudioside A, 68% of stevioside and 3% of rebaudioside C in percentages by mass). The lactase freeze-dried powder obtained in Example 1 is added to reach an enzyme concentration of 60 U/g stevioside for reaction at 35° C. for 2 h.
250 g/L glycoside liquid is prepared with deionized water from Stevia sugar (containing 22% of rebaudioside A, 68% of stevioside and 3% of rebaudioside C in percentages by mass). The lactase freeze-dried powder obtained in Example 1 is added to reach an enzyme concentration of 150 U/g stevioside for reaction at 35° C. for 24 h.
100 g/L glycoside liquid is prepared from the Stevia mother liquor glycosides (containing 47% of rebaudioside A, 19% of stevioside and 7% of rebaudioside C in percentages by mass). The lactase freeze-dried powder obtained in Example 1 is added to reach an enzyme concentration of 30 U/g stevioside for reaction at 25° C. for 0.5 h. […] It can be seen that a conversion rate of stevioside will drop at a low temperature, a low enzyme concentration and a short reaction time.
A 200 g/L stevioside solution is prepared by dissolving 20 g of stevioside (97%, HPLC) in 100 mL of deionized water into a reactor. The lactase freeze-dried powder obtained in Example 1 is added to reach an enzyme concentration of 90 U/g stevioside for reaction at 35° C. for 2 h.
The lactase freeze-dried powder obtained in Example 1 is added to a mixed glycoside solution (50% of stevioside and 50% of rebaudioside A) with a solid content of 200 g/L to reach an enzyme concentration of 200 U/g stevioside, stirred at 35° C. for 2 h.
A 10 g/L rebaudioside A solution is prepared by dissolving 1 g of rebaudioside A (99%, HPLC) in 100 mL of deionized water and preheated for 30 min at 30° C. The lactase freeze-dried powder obtained in Example 1 is added to reach an enzyme concentration of 100 U/g rebaudioside A for reaction for 24 h at 30° C.

[3] = target: T1, lactase (Lactozym 3000 L HP-G) from Kluyveromyces lactis (Kluyveromyces lactis, UniProt P00723); assay: Hydrolysis of stevioside in Stevia sugar by commercial lactase, HPLC; assay type: biochemical; conditions: Stevia sugar 450 g/L, pH5 buffer; 100 U/g stevioside; 30° C., 2 h
T1 construct: purchased Novozymes Lactozym 3000 L HP-G
Protocol: 450 g/L glycoside liquid is prepared with a pH5 phosphate-potassium phosphate buffer solution (50 mmol/L) from Stevia sugar (containing 22% of rebaudioside A, 68% of stevioside and 3% of rebaudioside C in percentages by mass). The lactase (trade name: Lactozym 3000 L HP-G, purchased from Novozymes company in China) from Kluyveromyces lactis is added to reach an enzyme concentration of 100 U/g stevioside for reaction at 30° C. for 2 h.

[4] = target: lactase from Aspergillus niger (ATCC 9029) (Aspergillus niger, UniProt P29853); assay: Hydrolysis of stevioside in Stevia sugar by lactase, HPLC; assay type: biochemical; conditions: Stevia sugar 450 g/L, pH5 buffer; 100 U/g stevioside; 30° C., 2 h
Protocol: 450 g/L glycoside liquid is prepared with a pH5 phosphate-potassium phosphate buffer solution (50 mmol/L) from Stevia sugar (containing 22% of rebaudioside A, 68% of stevioside and 3% of rebaudioside C in percentages by mass). The lactase from Aspergillus niger (ATCC® 9029™) is added to reach an enzyme concentration of 100 U/g stevioside for reaction at 30° C. for 2 h.

[5] = target: T2, lactase (Lactozym Pure 7500 L) (Kluyveromyces lactis, UniProt P00723); assay: Hydrolysis of stevioside in Stevia sugar by commercial lactase, HPLC; assay type: biochemical; conditions: Stevia sugar 450 g/L, pH5 buffer; 100 U/g stevioside; 30° C., 2 h
T2 construct: purchased Novozymes Lactozym Pure 7500 L
Protocol: 450 g/L glycoside liquid is prepared with a pH5 phosphate-potassium phosphate buffer solution (50 mmol/L) from Stevia sugar (containing 22% of rebaudioside A, 68% of stevioside and 3% of rebaudioside C in percentages by mass). The lactase (Lactozym Pure 7500 L, purchased from Novozymes company in China) is added to reach an enzyme concentration of 100 U/g stevioside for reaction at 30° C. for 2 h.

[6] = target: T3, lactase (Maxilact LG 2000) from Kluyveromyces lactis (Kluyveromyces lactis, UniProt P00723); assay: as above; assay type: biochemical; conditions: Stevia sugar 450 g/L, pH5 buffer, 100 U/g stevioside, 30° C.
T3 construct: purchased Royal DSM Maxilact LG 2000
Protocol: 450 g/L glycoside liquid is prepared with a pH5 phosphate-potassium phosphate buffer solution (50 mmol/L) from Stevia sugar (containing 22% of rebaudioside A, 68% of stevioside and 3% of rebaudioside C in percentages by mass). […]

T3 sequence (P00723 whole entry): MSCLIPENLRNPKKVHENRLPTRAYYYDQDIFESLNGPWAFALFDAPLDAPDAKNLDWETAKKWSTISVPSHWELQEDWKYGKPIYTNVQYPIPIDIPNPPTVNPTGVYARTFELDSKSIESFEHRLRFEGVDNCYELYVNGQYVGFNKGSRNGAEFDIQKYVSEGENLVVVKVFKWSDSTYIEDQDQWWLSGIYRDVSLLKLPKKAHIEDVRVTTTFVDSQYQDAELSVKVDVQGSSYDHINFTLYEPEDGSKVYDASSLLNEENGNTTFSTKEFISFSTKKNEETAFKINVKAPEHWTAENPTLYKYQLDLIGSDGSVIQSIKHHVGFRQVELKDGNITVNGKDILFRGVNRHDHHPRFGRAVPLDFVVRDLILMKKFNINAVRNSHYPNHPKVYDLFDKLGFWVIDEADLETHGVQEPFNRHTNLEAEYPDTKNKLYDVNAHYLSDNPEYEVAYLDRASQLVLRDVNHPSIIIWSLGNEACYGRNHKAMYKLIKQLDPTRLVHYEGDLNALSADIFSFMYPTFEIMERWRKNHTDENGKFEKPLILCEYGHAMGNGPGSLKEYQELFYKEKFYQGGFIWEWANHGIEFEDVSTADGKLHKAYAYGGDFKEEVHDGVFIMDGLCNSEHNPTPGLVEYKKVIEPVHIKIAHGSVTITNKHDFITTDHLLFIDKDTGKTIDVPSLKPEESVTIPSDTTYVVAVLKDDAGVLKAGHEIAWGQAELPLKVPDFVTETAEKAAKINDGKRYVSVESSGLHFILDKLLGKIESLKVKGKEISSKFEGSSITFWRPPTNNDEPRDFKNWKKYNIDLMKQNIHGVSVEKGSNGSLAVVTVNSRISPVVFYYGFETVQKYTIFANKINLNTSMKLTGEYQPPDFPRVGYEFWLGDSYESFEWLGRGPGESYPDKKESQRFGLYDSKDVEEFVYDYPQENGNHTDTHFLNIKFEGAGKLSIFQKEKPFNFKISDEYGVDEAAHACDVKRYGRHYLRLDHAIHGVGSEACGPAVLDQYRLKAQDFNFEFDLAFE
lactase from Aspergillus niger (ATCC 9029), sequence (P29853 20-1006): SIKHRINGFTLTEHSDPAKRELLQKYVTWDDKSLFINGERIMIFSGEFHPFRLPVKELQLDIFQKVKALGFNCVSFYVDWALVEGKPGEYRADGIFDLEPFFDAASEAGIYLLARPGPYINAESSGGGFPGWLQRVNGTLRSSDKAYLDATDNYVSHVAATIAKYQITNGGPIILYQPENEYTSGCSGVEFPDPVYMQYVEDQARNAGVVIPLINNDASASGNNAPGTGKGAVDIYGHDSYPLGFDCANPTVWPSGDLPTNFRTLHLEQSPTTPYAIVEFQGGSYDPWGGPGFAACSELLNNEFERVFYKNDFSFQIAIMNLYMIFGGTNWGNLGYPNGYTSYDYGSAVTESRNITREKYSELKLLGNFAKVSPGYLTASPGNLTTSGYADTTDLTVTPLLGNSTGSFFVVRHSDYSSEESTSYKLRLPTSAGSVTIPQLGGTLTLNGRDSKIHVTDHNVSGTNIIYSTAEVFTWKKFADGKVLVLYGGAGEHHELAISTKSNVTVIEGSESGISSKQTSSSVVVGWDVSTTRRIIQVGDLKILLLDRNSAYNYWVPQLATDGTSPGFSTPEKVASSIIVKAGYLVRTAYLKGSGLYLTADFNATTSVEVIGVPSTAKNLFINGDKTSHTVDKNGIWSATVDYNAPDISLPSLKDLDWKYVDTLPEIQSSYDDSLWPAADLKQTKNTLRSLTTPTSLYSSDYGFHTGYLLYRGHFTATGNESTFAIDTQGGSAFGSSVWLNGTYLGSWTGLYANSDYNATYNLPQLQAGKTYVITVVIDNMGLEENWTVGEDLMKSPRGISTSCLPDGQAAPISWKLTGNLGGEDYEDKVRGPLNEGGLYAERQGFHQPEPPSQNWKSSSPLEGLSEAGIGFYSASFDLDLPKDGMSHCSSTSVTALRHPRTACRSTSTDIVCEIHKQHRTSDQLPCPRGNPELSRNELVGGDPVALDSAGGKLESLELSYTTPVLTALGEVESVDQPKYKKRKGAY
T1 sequence (P00723 whole entry): as the sequence (P00723 whole entry) above
T2 sequence (P00723 whole entry): as above

## C=C1C[C@@]23CC[C@H]4[C@@](C)(CCC[C@@]4(C)C(=O)O[C@@H]4O[C@H](CO)[C@@H](O)[C@H](O)[C@H]4O)[C@@H]2CC[C@]1(O[C@@H]1O[C@H](CO)[C@@H](O)[C@H](O[C@@H]2O[C@H](CO)[C@@H](O)[C@H](O)[C@H]2O)[C@H]1O[C@@H]1O[C@H](CO)[C@@H](O)[C@H](O)[C@H]1O)C3 [rebaudioside A]
[1]
  n-butyl alcohol/water partition coefficients: 0.09
[2]; 10 g/L rebaudioside A, 100 U/g rebaudioside A, 30° C., 24 h
  reaction of rebaudioside A with lactase: did not react
[2]; 50 wt % rebaudioside A + 50 wt % stevioside, 200 U/g stevioside, 2 h (FIG. 4A)
  reaction of rebaudioside A with lactase in mixture with stevioside: does not react

## C=C1C[C@@]23CC[C@H]4[C@@](C)(CCC[C@@]4(C)C(=O)O[C@@H]4O[C@H](CO)[C@@H](O)[C@H](O)[C@H]4O)[C@@H]2CC[C@]1(O[C@@H]1O[C@H](CO)[C@@H](O)[C@H](O)[C@H]1O)C3 [rubusoside]
[1]
  n-butyl alcohol/water partition coefficients: 3.5

## C=C1C[C@@]23CC[C@H]4[C@@](C)(CCC[C@@]4(C)C(=O)O[C@@H]4O[C@H](CO)[C@@H](O)[C@H](O)[C@H]4O)[C@@H]2CC[C@]1(O[C@@H]1O[C@H](CO)[C@@H](O)[C@H](O)[C@H]1O[C@@H]1O[C@H](CO)[C@@H](O)[C@H](O)[C@H]1O)C3 [stevioside]
[3]
  conversion of stevioside: not converted
[4]
  content of stevioside in the reaction mixture: no change
[1]; n-butyl alcohol/water
  n-butyl alcohol/water partition coefficients: 0.36
[5]
  conversion of stevioside: not converted
[6]; 2 h
  conversion of stevioside: not converted
[6]; 20 h
  product of the reaction of stevioside: steviolbioside is produced
[2]; 50% stevioside + 50% rebaudioside A, 200 g/L, 200 U/g stevioside, 35° C., 2 h
  conversion rate of stevioside: 99.5%
[2]; 200 g/L stevioside (97%) solution, 90 U/g stevioside, 35° C., 2 h
  conversion rate of stevioside: 98.9%
[2]; Stevia mother liquor glycosides 100 g/L (19% stevioside), 30 U/g stevioside, 25° C., 0.5 h
  conversion rate of stevioside: 72.7%
[2]; Stevia sugar 250 g/L (68% stevioside), 60 U/g stevioside, 35° C., 2 h
  conversion rate of stevioside: 98.3%
[2]; Stevia sugar 250 g/L (68% stevioside), 150 U/g stevioside, 35° C., 24 h
  conversion rate of stevioside: 99.5%

## rebaudioside C
[1]
  n-butyl alcohol/water partition coefficients: 0.2
